# Patent US20220356174A1, “PYRIDIN-2-ONE COMPOUNDS USEFUL AS SMARCA2 ANTAGONISTS” (Epizyme, Inc., priority 2018, published 2022)
# Where two headings read alike, the source gives them in different places.
# Assays:
# [1] = biological target: T1, FL-SMARCA2 (full-length human SMARCA2 isoform 1) (Homo sapiens, UniProt P51531); assay: SMARCA2 ATPase activity assay (ADP-Glo, chicken mononucleosome substrate); format: biochemical; details: ATP 250 uM
# T1 construct: FLAG tag (YKDDDDK) (C); made in house; host or cells: Sf21 insect cells (baculovirus, pFastBacI)
# T1 sequence (P51531 with tags, fused parts or gaps): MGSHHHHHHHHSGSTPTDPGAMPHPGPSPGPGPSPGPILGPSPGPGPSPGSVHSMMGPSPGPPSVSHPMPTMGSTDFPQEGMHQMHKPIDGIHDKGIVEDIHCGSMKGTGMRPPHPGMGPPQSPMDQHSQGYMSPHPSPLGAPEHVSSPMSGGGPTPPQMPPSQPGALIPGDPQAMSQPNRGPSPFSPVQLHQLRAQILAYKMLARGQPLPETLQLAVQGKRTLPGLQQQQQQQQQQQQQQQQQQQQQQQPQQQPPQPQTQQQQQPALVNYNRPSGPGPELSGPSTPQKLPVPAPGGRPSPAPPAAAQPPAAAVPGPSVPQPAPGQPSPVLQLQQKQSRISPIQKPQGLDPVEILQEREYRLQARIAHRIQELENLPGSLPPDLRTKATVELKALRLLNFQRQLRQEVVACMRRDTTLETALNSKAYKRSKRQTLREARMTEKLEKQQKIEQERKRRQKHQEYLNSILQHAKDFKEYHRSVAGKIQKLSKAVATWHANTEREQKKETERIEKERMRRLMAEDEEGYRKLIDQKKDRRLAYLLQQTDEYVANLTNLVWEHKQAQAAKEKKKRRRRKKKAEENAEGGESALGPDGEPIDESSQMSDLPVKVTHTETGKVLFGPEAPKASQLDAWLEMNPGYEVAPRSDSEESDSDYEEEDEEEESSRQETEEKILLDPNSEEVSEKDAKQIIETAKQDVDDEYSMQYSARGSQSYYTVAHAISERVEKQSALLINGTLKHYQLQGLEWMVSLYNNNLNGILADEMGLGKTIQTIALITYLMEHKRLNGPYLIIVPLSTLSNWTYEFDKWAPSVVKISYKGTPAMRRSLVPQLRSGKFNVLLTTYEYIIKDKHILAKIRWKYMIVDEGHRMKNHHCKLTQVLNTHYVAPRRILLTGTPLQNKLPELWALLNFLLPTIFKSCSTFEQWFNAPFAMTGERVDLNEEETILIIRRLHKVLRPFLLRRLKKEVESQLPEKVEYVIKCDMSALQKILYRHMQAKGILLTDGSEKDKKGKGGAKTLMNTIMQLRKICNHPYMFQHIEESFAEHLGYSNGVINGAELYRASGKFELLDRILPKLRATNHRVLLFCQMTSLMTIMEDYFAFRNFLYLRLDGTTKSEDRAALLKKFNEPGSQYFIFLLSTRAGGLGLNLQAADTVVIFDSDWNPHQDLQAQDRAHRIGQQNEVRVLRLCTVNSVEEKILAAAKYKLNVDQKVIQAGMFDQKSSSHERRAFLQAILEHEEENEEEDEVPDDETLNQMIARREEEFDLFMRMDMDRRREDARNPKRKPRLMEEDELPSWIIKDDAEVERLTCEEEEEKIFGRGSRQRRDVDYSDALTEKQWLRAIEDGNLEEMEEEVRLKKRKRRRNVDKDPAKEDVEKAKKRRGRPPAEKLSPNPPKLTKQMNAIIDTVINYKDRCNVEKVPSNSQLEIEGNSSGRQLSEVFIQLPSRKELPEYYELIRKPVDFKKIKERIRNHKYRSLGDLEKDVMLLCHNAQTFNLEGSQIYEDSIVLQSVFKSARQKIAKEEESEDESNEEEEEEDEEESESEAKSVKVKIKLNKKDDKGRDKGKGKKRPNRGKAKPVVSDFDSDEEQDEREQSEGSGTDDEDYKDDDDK
# Text: Molecular Biology: Full-length human SMARCA2 isoform 1 (P51531) transcript clone was amplified from a cDNA library incorporating an N-terminal HIS tag ([…]) fused directly to Ser2 of SMARCA2 and a C-FLAG tag (YKDDDDK) fused directly to Glu1590 of SMARCA2. The amplified gene was subcloned into pFastBacI (Life Technologies).
# Protein Expression: Recombinant baculovirus were generated and protein over-expression was accomplished by infecting exponentially growing Sf21 insect cell culture at 1.24×10^6 cell/ml with an MOI of 0.1. Infections were carried out for 76 hours, harvested by centrifugation, and stored at −80° C. for purification.
# Expressed full-length SMARCA2 was purified from cell paste by FLAG affinity chromatography followed by anion exchange chromatography. The protein was dialyzed into a storage buffer containing 25 mM HEPES, 300 mM KCl, 10% Glycerol, pH 7.9, 1 mM TCEP and 0.01% Tween-20. The purity of the protein was measured as 74% using micro-capillary based gel electrophoresis.
# FL-SMARCA4 = FL-SMARCA4 (Homo sapiens, UniProt P51532); assay: SMARCA4 ATPase activity assay (ADP-Glo, chicken mononucleosome substrate)
# Chain of FL-SMARCA4 (P51532 whole entry): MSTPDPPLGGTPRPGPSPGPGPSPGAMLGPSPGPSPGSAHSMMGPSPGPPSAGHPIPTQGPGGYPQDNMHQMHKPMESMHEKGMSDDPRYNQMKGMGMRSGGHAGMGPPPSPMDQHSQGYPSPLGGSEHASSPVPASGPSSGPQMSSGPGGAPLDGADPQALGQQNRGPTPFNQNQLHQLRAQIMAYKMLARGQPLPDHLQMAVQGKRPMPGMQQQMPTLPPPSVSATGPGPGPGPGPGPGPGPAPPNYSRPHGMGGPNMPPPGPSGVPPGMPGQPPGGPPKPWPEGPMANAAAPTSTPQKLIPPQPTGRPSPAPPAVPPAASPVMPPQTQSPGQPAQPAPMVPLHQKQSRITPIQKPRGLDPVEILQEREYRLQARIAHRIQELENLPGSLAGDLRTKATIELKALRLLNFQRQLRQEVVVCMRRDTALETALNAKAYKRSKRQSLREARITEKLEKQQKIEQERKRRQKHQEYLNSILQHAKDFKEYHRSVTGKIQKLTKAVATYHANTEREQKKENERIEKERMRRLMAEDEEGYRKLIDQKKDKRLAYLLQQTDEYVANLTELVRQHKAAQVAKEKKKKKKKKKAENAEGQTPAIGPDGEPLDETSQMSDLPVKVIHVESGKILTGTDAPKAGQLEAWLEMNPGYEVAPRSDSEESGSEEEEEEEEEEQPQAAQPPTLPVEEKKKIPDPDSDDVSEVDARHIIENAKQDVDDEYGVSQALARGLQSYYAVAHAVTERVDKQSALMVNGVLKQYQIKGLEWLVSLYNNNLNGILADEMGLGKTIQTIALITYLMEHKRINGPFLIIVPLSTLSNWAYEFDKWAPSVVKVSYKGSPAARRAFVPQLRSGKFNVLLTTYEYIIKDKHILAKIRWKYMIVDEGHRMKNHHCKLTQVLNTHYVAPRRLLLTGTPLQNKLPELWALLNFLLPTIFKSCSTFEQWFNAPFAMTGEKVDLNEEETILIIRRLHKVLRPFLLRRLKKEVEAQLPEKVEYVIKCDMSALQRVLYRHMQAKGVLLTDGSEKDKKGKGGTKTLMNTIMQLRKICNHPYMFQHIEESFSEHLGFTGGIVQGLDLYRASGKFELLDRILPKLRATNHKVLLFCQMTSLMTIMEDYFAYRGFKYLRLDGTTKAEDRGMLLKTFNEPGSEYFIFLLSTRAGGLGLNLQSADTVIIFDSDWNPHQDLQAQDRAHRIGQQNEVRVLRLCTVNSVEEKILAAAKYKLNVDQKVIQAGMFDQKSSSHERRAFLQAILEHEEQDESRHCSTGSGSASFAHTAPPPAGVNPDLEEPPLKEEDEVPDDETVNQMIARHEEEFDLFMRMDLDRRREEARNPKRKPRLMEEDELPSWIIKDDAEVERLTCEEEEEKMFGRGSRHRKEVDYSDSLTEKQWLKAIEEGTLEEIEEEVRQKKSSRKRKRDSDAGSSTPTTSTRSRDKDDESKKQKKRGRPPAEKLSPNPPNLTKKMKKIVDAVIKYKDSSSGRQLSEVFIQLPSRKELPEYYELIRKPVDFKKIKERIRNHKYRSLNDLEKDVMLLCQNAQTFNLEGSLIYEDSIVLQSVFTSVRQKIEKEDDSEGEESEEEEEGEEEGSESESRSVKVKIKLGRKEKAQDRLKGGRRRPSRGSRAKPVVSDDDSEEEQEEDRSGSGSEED
# [2] = Table 3.1, ATPase assay, enzyme 5 nM, chicken mononucleosome 10 nM, 30 min preincubation
# [3] = FL-SMARCA4 IC50, Table 3.2, ATPase assay, enzyme 5 nM, ATP 250 uM, chicken mononucleosome 10 nM, 30 min preincubation
# [4] = Table 3a.1, SMARCA2 5 nM, mononucleosome 10 nM
# [5] = FL-SMARCA4 IC50, Table 3a.2, SMARCA4 5 nM, ATP 250 uM, mononucleosome 10 nM
# [6] = Table 3c.1, ATPase assay, enzyme 5 nM, chicken mononucleosome 10 nM, 30 min preincubation
# [7] = FL-SMARCA4 IC>50, Table 3c.2, ATPase assay, enzyme 5 nM, ATP 250 uM, chicken mononucleosome 10 nM, 30 min preincubation
# [8] = Table 3d.1, ATPase assay, enzyme 5 nM, chicken mononucleosome 10 nM, 30 min preincubation, read-out: FL-SMARCA2 IC>50
# [9] = Table 3b.1, SMARCA2 5 nM, mononucleosome 10 nM
# [10] = FL-SMARCA4 IC50, Table 3b.2, SMARCA4 5 nM, ATP 250 uM, mononucleosome 10 nM
"IC50 [1, 2] [µM]",IC50 (FL-SMARCA4; [3]) [µM],SMILES,other results
3.78,17.2,O=C(Nc1cc(F)c(=O)n(CC(F)F)c1)c1cc(Cl)no1 [Compound 326],
,,CCn1cc(NC(=O)c2cccc(Cl)n2)ccc1=O [Compound 25a],"IC50 [1, 4]: > 50 µM; IC50 (FL-SMARCA4; [5]): > 50 µM"
,,COc1ccc(C#Cc2cc(C(=O)Nc3cc(F)c(=O)n(CC(F)F)c3)sc2Cl)cc1 [Compound 44c],"IC50 [1, 6]: 1.04 µM; IC50 (FL-SMARCA4; [7]): 2.19 µM"
9.42,14.3,CCn1cc(NC(=O)c2cc(Cl)c(Cl)s2)cc(NCCN(C)C)c1=O [Compound 114],
,,O=C(Nc1cc(F)c(=O)n(CCF)c1)c1ccc2c(c1)CNC2=O [Compound 68a],"IC50 [1, 4]: > 50 µM; IC50 (FL-SMARCA4; [5]): > 50 µM"
> 50,> 50,CCn1cc(C(=O)Nc2ccc(Br)s2)ccc1=O [Compound 77],
,,CCn1cc(NC(=O)c2cc3ccccc3s2)ccc1=O [Compound 36a],"IC50 [1, 4]: > 50 µM; IC50 (FL-SMARCA4; [5]): > 50 µM"
1.35,6.37,N#Cc1cc(C(=O)Nc2cc(F)c(=O)n(CCF)c2)oc1C#N [Compound 246],
,,CC(C)(C)OC(=O)N1CC(C#Cc2cc(C(=O)Nc3cc(F)c(=O)n(CC(F)F)c3)sc2Cl)C1 [Compound 10c],"IC50 [1, 6]: 3.35 µM; IC50 (FL-SMARCA4; [7]): 7.13 µM"
,,O=C(Nc1cc(F)c(=O)n(CC(F)F)c1)c1cc(C2CN(c3ccncc3)C2)c(Cl)s1 [Compound 77c],"IC50 [1, 6]: 6.56 µM; IC50 (FL-SMARCA4; [7]): 30.5 µM"
> 50,> 50,CCn1cc(NC(=O)c2c[nH]c(C)c2)ccc1=O [Compound 55],
,,CCn1cc(NC(=O)c2ccc3c(n2)OCO3)ccc1=O [Compound 37a],"IC50 [1, 4]: > 50 µM; IC50 (FL-SMARCA4; [5]): > 50 µM"
0.94,3.27,CS(=O)(=O)c1cc(C(=O)Nc2cc(F)c(=O)n(CCF)c2)sc1Cl [Compound 307],
0.317,0.649,CCn1cc(NC(=O)c2cnc(C#N)s2)ccc1=O [Compound 206],
,,CN1CCN(C(=O)Nc2cc(F)c(=O)n(CCF)c2)CC1=O [Compound 54a],"IC50 [1, 4]: > 50 µM; IC50 (FL-SMARCA4; [5]): > 50 µM"
> 50,> 50,CCn1cc(NC(=O)c2cc(CN(C)C)cs2)ccc1=O [Compound 98],
,,Cc1cc(=O)[nH]cc1NC(=O)c1ccc(C(F)(F)F)nc1C [Compound 32d],"IC50 [1, 8]: > 50 µM; IC50 (FL-SMARCA4; FL-SMARCA4 IC50): > 50 µM"
,,O=C(Nc1cc(C#CCO)c(=O)n(CC(F)F)c1)c1cc(F)c(Cl)s1 [Compound 4c],"IC50 [1, 6]: 6.98 µM; IC50 (FL-SMARCA4; [7]): 18.1 µM"
> 50,> 50,Cn1cnc(-c2ccc(C(=O)Nc3cc(F)c(=O)n(CCF)c3)s2)c1 [Compound 311],
0.0384,0.108,O=C(Nc1cc(F)c(=O)n(CCF)c1)c1cc(C#Cc2cccnc2)c(Cl)s1 [Compound 328],
,,O=C(Nc1ccc(=O)n(CC(F)(F)F)c1)c1nc2cc(F)c(Cl)cc2[nH]1 [Compound 41a],"IC50 [1, 4]: > 50 µM; IC50 (FL-SMARCA4; [5]): > 50 µM"

"IC50 [1, 2] [µM]",IC50 (FL-SMARCA4; [3]) [µM],SMILES,other results
14.8,28.9,O=C(Nc1ccc(=O)n(CC2CC2)c1)c1cc(Cl)c(Cl)s1 [Compound 82],
,,CCn1cc(NC(=O)c2cn3cccnc3n2)ccc1=O [Compound 21a],"IC50 [1, 4]: > 50 µM; IC50 (FL-SMARCA4; [5]): > 50 µM"
,,O=C(Nc1cc(F)c(=O)n(CCF)c1)c1ccc(Cl)c(Cl)c1 [Compound 17b],"IC50 [1, 9]: 0.645 µM; IC50 (FL-SMARCA4; [10]): 4.78 µM"
0.365,0.669,CCn1cc(NC(=O)c2cc(Cl)c(C#N)s2)ccc1=O [Compound 86],
,,CCn1cc(NC(=O)c2cn(C)c3c(Cl)cccc23)ccc1=O [Compound 27a],"IC50 [1, 4]: > 50 µM; IC50 (FL-SMARCA4; [5]): > 50 µM"
33.2,> 50,CCn1cc(NC(=O)c2nnc(Cl)s2)ccc1=O [Compound 72],
1.32,16.6,O=C(Nc1cc(F)c(=O)n(CCF)c1)c1cc(Cl)c(CC(F)(F)F)s1 [Compound 319],
> 50,> 50,CCn1cc(NC(=O)c2cc(Cl)c(Cl)s2)cc(OCCN2CCOCC2)c1=O [Compound 122],
0.309,1.17,Cn1c(C(=O)Nc2cc(Cl)c(=O)n(CC(F)(F)F)c2)cc(Cl)c1C#N [Compound 163],
,,COc1cccc(-c2nc(C(=O)Nc3cn(C)c(=O)cc3C)cs2)c1OC [Compound 5d],"IC50 [1, 8]: > 50 µM; IC50 (FL-SMARCA4; FL-SMARCA4 IC50): > 50 µM"
,,CCn1cc(NC(=O)c2ccc(Cl)cc2)ccc1=O [Compound 7b],"IC50 [1, 9]: > 50 µM; IC50 (FL-SMARCA4; [10]): > 50 µM"
,,Cc1cc(C)n(-c2ccc(C(=O)Nc3cn(C)c(=O)cc3C)cn2)n1 [Compound 2d],"IC50 [1, 8]: > 50 µM; IC50 (FL-SMARCA4; FL-SMARCA4 IC50): > 50 µM"
0.194,0.94,Cn1c(C(=O)Nc2cc(Cl)c(=O)n(CCF)c2)cc(Cl)c1C#N [Compound 162],
0.166,0.616,Cn1c(C(=O)Nc2cc(F)c(=O)n(CCF)c2)cc(Cl)c1C#N [Compound 152],
4.06,26.6,CCn1cc(NC(=O)c2cc(Cl)c(Cl)[nH]2)ccc1=O [Compound 17],
,,CCn1cc(NC(=O)[C@@H]2CCC[C@@H](Cl)C2)ccc1=O [Compound 14b],"IC50 [1, 9]: > 50 µM; IC50 (FL-SMARCA4; [10]): > 50 µM"
,,CS(=O)(=O)c1cc(NC(=O)c2cc(F)c(Cl)s2)cn(CC(F)F)c1=O [Compound 11c],"IC50 [1, 6]: > 50 µM; IC50 (FL-SMARCA4; [7]): > 50 µM"
,,CCn1cc(NC(=O)c2cccnc2)ccc1=O [Compound 14a],"IC50 [1, 4]: > 50 µM; IC50 (FL-SMARCA4; [5]): > 50 µM"
> 50,> 50,CCn1cc(NC(=O)c2nc(-c3ccc(OC)cc3)oc2C)ccc1=O [Compound 3],
> 50,> 50,CCn1cc(NC(=O)c2ccn(C)n2)ccc1=O [Compound 93],
,,O=C(Nc1cc(F)c(=O)n(CC(F)F)c1)c1coc(Cl)n1 [Compound 37d],"IC50 [1, 8]: > 50 µM; IC50 (FL-SMARCA4; FL-SMARCA4 IC50): > 50 µM"

"IC50 [1, 2] [µM]",IC50 (FL-SMARCA4; [3]) [µM],SMILES,other results
0.197,1.12,CCn1cc(NC(=O)c2cc(Cl)c(Cl)s2)cc(Cl)c1=O [Compound 84],
,,O=C(Nc1cc(F)c(=O)n(CC(F)F)c1)c1cc(C2CC(c3ccncc3)C2)c(Cl)s1 (stereo not drawn) [Compound 152c],"IC50 [1, 6]: 4.69 µM; IC50 (FL-SMARCA4; [7]): 37.5 µM"
29.6,> 50,NS(=O)(=O)c1sc(C(=O)Nc2cc(F)c(=O)n(CCF)c2)cc1Cl [Compound 309],
> 50,> 50,CNC(=O)c1sc(C(=O)Nc2cc(F)c(=O)n(CCF)c2)cc1Cl [Compound 278],
0.238,1.07,CCn1cc(NC(=O)c2cc(C#N)c(Cl)s2)cc(Cl)c1=O [Compound 172],
> 50,> 50,O=C(Nc1cc(F)c(=O)n(CCF)c1)c1ccc(-c2ccncc2)s1 [Compound 314],
0.293,2,Cn1c(C(=O)Nc2cc(Cl)c(=O)n(CC(F)(F)F)c2)cc(Cl)c1Cl [Compound 135],
,,CNC(=O)c1cccc(N2CC(c3cc(C(=O)Nc4cc(F)c(=O)n(CC(F)F)c4)sc3Cl)C2)c1 [Compound 176c],"IC50 [1, 6]: 9.19 µM; IC50 (FL-SMARCA4; [7]): 9.19 µM"
,,O=C(Nc1cc(F)c(=O)n(CC(F)F)c1)c1n[nH]c(Cl)n1 [Compound 38d],"IC50 [1, 8]: > 50 µM; IC50 (FL-SMARCA4; FL-SMARCA4 IC50): > 50 µM"
,,NCCn1cc(NC(=O)c2cc(F)c(Cl)s2)cc(F)c1=O [Compound 32c],"IC50 [1, 6]: 5.67 µM; IC50 (FL-SMARCA4; [7]): 12.5 µM"
,,CO[C@H]1C[C@@H](C(=O)Nc2cc(Cl)c(=O)n(C)c2)N(C)C1 [Compound 11a],"IC50 [1, 4]: > 50 µM; IC50 (FL-SMARCA4; [5]): > 50 µM"
,,CCn1cc(NC(=O)C2CCOCC2)ccc1=O [Compound 13a],"IC50 [1, 4]: > 50 µM; IC50 (FL-SMARCA4; [5]): > 50 µM"
> 50,> 50,Nc1ncc(C(=O)Nc2cc(F)c(=O)n(CCF)c2)s1 [Compound 224],
,,CCn1nc(NC(=O)c2cc(Cl)c(Cl)n2C)ccc1=O [Compound 16d],"IC50 [1, 8]: 16.7 µM; IC50 (FL-SMARCA4; FL-SMARCA4 IC50): > 50 µM"
> 50,> 50,O=C(Nc1cc(F)c(=O)n(CCF)c1)c1cn(CC(F)(F)F)c(=O)s1 [Compound 277],
> 50,> 50,CCCc1cc(NC(=O)c2cc(Cl)c(Cl)s2)cn(CC)c1=O [Compound 112],
> 50,> 50,CCn1cc(NC(=O)c2nc(Cl)c(Cl)s2)ccc1=O [Compound 64],
> 50,> 50,CC(=O)Nc1ncc(C(=O)Nc2cc(F)c(=O)n(CCF)c2)s1 [Compound 258],
,,CCCn1nc(NC(=O)c2cc(Cl)c(Cl)s2)ccc1=O [Compound 22d],"IC50 [1, 8]: 6.38 µM; IC50 (FL-SMARCA4; FL-SMARCA4 IC50): 28.9 µM"
> 50,> 50,Cn1nc(C(=O)Nc2cc(F)c(=O)n(CCF)c2)cc1Cl [Compound 230],
1.48,16.7,Cn1c(C(=O)Nc2ccc(=O)n(CC(F)(F)F)c2)cc(Cl)c1Cl [Compound 53],
